Key:
Assay in all cases: Bliss excess, mean over the matrix (fraction); higher = more synergy
[1] = test system: T47D (Breast Carcinoma)
How it was run: (§1)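 Bliss excess equals the observed combination effect minus the expected value EA + EB − EA·EB, where EA and EB are the effects of each agent alone. Combination Emax is the second-highest inhibition within the matrix. Inhibition was scaled from CellTiter-Glo 2.0 luminescence, with 0 set by vehicle wells and 1 by blank wells, after 72 hours of two-drug dosing of cells plated in 1536-well plates.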

[2] = test system: BHT-101 (Thyroid Gland Carcinoma)
How it was run: as §1

[3] = test system: PA-TU-8988T (Pancreatic Carcinoma)
How it was run: as §1

[4] = test system: MOLT-13 (T-Lymphoblastic Leukemia)
How it was run: as §1

[5] = test system: MDA-MB-415 (Breast Carcinoma)
How it was run: as §1

[6] = test system: SNU-C2B (Colorectal Carcinoma)
How it was run: as §1

[7] = test system: SCC-4 (Oral Cavity Carcinoma)
How it was run: as §1

[8] = test system: P30-OHK (B-Lymphoblastic Leukemia)
How it was run: as §1

[9] = test system: HT-1080 (Other Solid Carcinomas)
How it was run: as §1

[10] = test system: MOLP-8 (Plasma Cell Myeloma)
How it was run: as §1

[11] = test system: C-33-A (Cervical Carcinoma)
How it was run: as §1

[12] = test system: NCI-H1963 (Small Cell Lung Carcinoma)
How it was run: as §1

[13] = test system: TUR (Acute Myeloid Leukemia)
How it was run: as §1

[14] = test system: WM35 (Melanoma)
How it was run: as §1

[15] = test system: LCLC-103H (Non-Small Cell Lung Carcinoma)
How it was run: as §1

[16] = test system: SKG-IIIa (Cervical Carcinoma)
How it was run: as §1

[17] = test system: SK-N-SH (Neuroblastoma)
How it was run: as §1

[18] = test system: KALS-1 (Glioblastoma)
How it was run: as §1

[19] = test system: CPC-N (Small Cell Lung Carcinoma)
How it was run: as §1

[20] = test system: COR-L88 (Small Cell Lung Carcinoma)
How it was run: as §1

| Structure (SMILES) | Bliss excess [1] | Bliss excess [2] | Bliss excess [3] | Bliss excess [4] | Bliss excess [5] | Bliss excess [6] | Bliss excess [7] | Bliss excess [8] | Bliss excess [9] | Bliss excess [10] | Bliss excess [11] | Bliss excess [12] | Bliss excess [13] | Bliss excess [14] | Bliss excess [15] | Bliss excess [16] | Bliss excess [17] | Bliss excess [18] | Bliss excess [19] | Bliss excess [20] |
| --- | --- | --- | --- | --- | --- | --- | --- | --- | --- | --- | --- | --- | --- | --- | --- | --- | --- | --- | --- | --- |
| COc1nnc2ccc(N3CCC(c4ccc(OCCN5CCN(C)C(=O)[C@H]5C)cc4)CC3)nn12 [AZD5153] + Cc1c2c(nn1C)CSCc1cc(n(C)n1)CSc1cc(c3ccccc3c1)OCCCc1c(C(=O)O)n(C)c3c-2c(Cl)ccc13 [AZD5991] (first compound max 1 µM, 7x7, partner max 1 µM) | 0.0003 | 0.0167 | 0.005 | -0.0503 | 0.031 | -0.0319 | -0.0208 | -0.0042 | -0.0668 | -0.0051 | 0.0124 | 0.0125 | 0.0507 | 0.0634 | 0.0179 | -0.0782 | -0.0334 | 0.0141 | 0.0163 | 0.0848 |
| COc1nnc2ccc(N3CCC(c4ccc(OCCN5CCN(C)C(=O)[C@H]5C)cc4)CC3)nn12 [AZD5153] + Cn1cnc2c(F)c(Nc3ccc(Br)cc3Cl)c(C(=O)NOCCO)cc21 [Selumetinib] (first compound max 1 µM, 7x7, partner max 10 µM) | 0.0101 | -0.0593 | 0.0423 | 0.085 | 0.0512 | 0.019 | -0.0332 | -0.0004 | 0.0587 | 0.0094 | 0.0725 | -0.0176 | -0.0567 | 0.0702 | 0.0325 | 0.0128 | -0.0142 | -0.0421 | -0.0222 | -0.0196 |
| Cc1c2c(nn1C)CSCc1cc(n(C)n1)CSc1cc(c3ccccc3c1)OCCCc1c(C(=O)O)n(C)c3c-2c(Cl)ccc13 [AZD5991] + C1CN(CCC1(C(=O)N[C@@H](CCO)C2=CC=C(C=C2)Cl)N)C3=NC=NC4=C3C=CN4 [Capivasertib] (first compound max 1 µM, 7x7, partner max 3 µM) | -0.0887 | 0.0332 | -0.01 | -0.0135 | 0.0144 | -0.0161 | 0.0358 | 0.0273 | -0.0594 | 0.0077 | 0.0063 | 0.0377 | 0.0937 | -0.0183 | -0.0025 | -0.0231 | 0.011 | 0.0491 | 0.0177 | -0.0058 |
| Cc1c2c(nn1C)CSCc1cc(n(C)n1)CSc1cc(c3ccccc3c1)OCCCc1c(C(=O)O)n(C)c3c-2c(Cl)ccc13 [AZD5991] + C=CCn1c(=O)c2cnc(Nc3ccc(N4CCN(C)CC4)cc3)nc2n1-c1cccc(C(C)(C)O)n1 [AZD1775] (first compound max 1 µM, partner max 1 µM) | -0.0369 | 0.0811 | -0.0321 | -0.0071 | 0.0011 | 0.0194 | 0.0917 | 0.0077 | 0.0345 | -0.0041 | -0.0556 | 0.0006 | 0.0189 | 0.027 | 0.0101 | 0.0071 | -0.0163 | -0.0169 | -0.0453 | -0.0463 |
| Cc1c2c(nn1C)CSCc1cc(n(C)n1)CSc1cc(c3ccccc3c1)OCCCc1c(C(=O)O)n(C)c3c-2c(Cl)ccc13 [AZD5991] + CC1(C)CCC(CN2CCN(c3ccc(C(=O)NS(=O)(=O)c4ccc(NCC5CCOCC5)c([N+](=O)[O-])c4)c(Oc4cnc5[nH]ccc5c4)c3)CC2)=C(c2ccc(Cl)cc2)C1 [Venetoclax] (first compound max 1 µM, 7x7, partner max 1 µM) | -0.0042 | 0.0146 | -0.0031 | 0.0266 | 0.0637 | -0.0289 | -0.0365 | 0.285 | -0.0353 | 0.0174 | -0.006 | 0.119 | 0.138 | 0.0181 | -0.0347 | -0.0115 | 0.151 | -0.0206 | -0.017 | 0.136 |
| Cc1c2c(nn1C)CSCc1cc(n(C)n1)CSc1cc(c3ccccc3c1)OCCCc1c(C(=O)O)n(C)c3c-2c(Cl)ccc13 [AZD5991] + CCN(CCO)CCCOc1ccc2c(Nc3cc(CC(=O)Nc4cccc(F)c4)[nH]n3)ncnc2c1 [AZD2811] (first compound max 1 µM, 7x7, partner max 1 µM) | -0.0096 | -0.0507 | 0.0689 | 0.0028 | -0.108 | 0.0057 | 0.0408 | -0.0342 | 0.0096 | 0.0543 | -0.028 | -0.0088 | 0.121 | 0.0333 | -0.0421 | 0.0203 | -0.068 | -0.0294 | 0.0311 | 0.0453 |
| Cc1c2c(nn1C)CSCc1cc(n(C)n1)CSc1cc(c3ccccc3c1)OCCCc1c(C(=O)O)n(C)c3c-2c(Cl)ccc13 [AZD5991] + CN(C)CCCOc1ccc(-c2ccc3ncc4c(c3c2)n(C2CCOCC2)c(=O)n4C)cn1 [AZD0156] (first compound max 1 µM, 7x7, partner max 1 µM) | 0.0093 | 0.0638 | 0.0146 | -0.0198 | -0.0183 | 0.0051 | -0.0232 | -0.0042 | -0.0148 | 0.0086 | -0.0089 | 0.0225 | 0.0377 | 0.0155 | 0.0401 | 0.0104 | 0.0204 | 0.0151 | -0.0129 | -0.0129 |
| Cc1c2c(nn1C)CSCc1cc(n(C)n1)CSc1cc(c3ccccc3c1)OCCCc1c(C(=O)O)n(C)c3c-2c(Cl)ccc13 [AZD5991] + C[C@@H]1COCCN1C2=NC(=NC(=C2)C3(CC3)[S@](=N)(=O)C)C4=C5C=CNC5=NC=C4 [AZD6738] (first compound max 1 µM, 7x7, partner max 10 µM) | 0.0333 | 0.0666 | 0.0151 | 0.0186 | 0.0328 | -0.0199 | -0.0003 | 0.0592 | 0.0041 | 0.0254 | -0.0501 | 0.0858 | 0.096 | 0.0604 | 0.0224 | 0.0106 | -0.0225 | 0.0165 | -0.024 | 0.0555 |
| Cc1c2c(nn1C)CSCc1cc(n(C)n1)CSc1cc(c3ccccc3c1)OCCCc1c(C(=O)O)n(C)c3c-2c(Cl)ccc13 [AZD5991] + C[C@@H](Nc1cc(F)cc(F)c1)c1cc(C(=O)N(C)C)cc2c(=O)cc(N3CCOCC3)oc12 [AZD8186] (first compound max 1 µM, 7x7, partner max 3 µM) | -0.0323 | 0.0094 | 0.0295 | -0.0116 | 0.0416 | -0.0337 | 0.0116 | 0.0058 | -0.0338 | 0.0039 | -0.0463 | 0.0155 | 0.0047 | 0.0064 | 0.0125 | -0.0411 | -0.0094 | 0.012 | -0.0085 | -0.0524 |
| Cc1c2c(nn1C)CSCc1cc(n(C)n1)CSc1cc(c3ccccc3c1)OCCCc1c(C(=O)O)n(C)c3c-2c(Cl)ccc13 [AZD5991] + Cc1cc2ncnn2cc1Nc1ncc2c(n1)n(C1CCOCC1)c(=O)n2C [AZD7648] (first compound max 1 µM, 7x7, partner max 10 µM) | -0.0159 | -0.0308 | -0.051 | -0.0085 | -0.0924 | -0.012 | -0.0269 | -0.0222 | -0.0256 | 0.0192 | -0.0586 | -0.0169 | -0.0488 | -0.0073 | -0.0543 | -0.0261 | -0.0211 | -0.008 | -0.0109 | -0.0006 |
| Cc1c2c(nn1C)CSCc1cc(n(C)n1)CSc1cc(c3ccccc3c1)OCCCc1c(C(=O)O)n(C)c3c-2c(Cl)ccc13 [AZD5991] + Cn1cnc2c(F)c(Nc3ccc(Br)cc3Cl)c(C(=O)NOCCO)cc21 [Selumetinib] (first compound max 1 µM, 7x7, partner max 3 µM) | -0.0092 | 0.0253 | 0.0457 | 0.0203 | -0.0419 | 0.0671 | 0.0478 | 0.0011 | 0.0108 | 0.0291 | 0.0077 | 0.0518 | 0.0408 | 0.0794 | -0.0774 | -0.0076 | -0.0515 | -0.0897 | 0.0185 | -0.0114 |
| C[C@@H]1COCCN1c1cc(C2([S@](C)(=N)=O)CC2)nc(-c2ccnc3[nH]ccc23)n1 [AZD6738] + O=C(c1cc(Cc2n[nH]c(=O)c3ccccc23)ccc1F)N1CCN(C(=O)C2CC2)CC1 [Olaparib] (first compound max 10 µM, 7x7, partner max 10 µM) | 0.0359 | 0.016 | 0.0472 | 0.0645 | 0.0239 | 0.0123 | 0.059 | 0.0469 | 0.0128 | 0.003 | -0.0049 | 0.0725 | 0.0244 | 0.0084 | 0.0482 | 0.0236 | -0.0667 | 0.0028 | 0.015 | -0.12 |
| Cc1cc2ncnn2cc1Nc1ncc2c(n1)n(C1CCOCC1)c(=O)n2C [AZD7648] + C=CCn1c(=O)c2cnc(Nc3ccc(N4CCN(C)CC4)cc3)nc2n1-c1cccc(C(C)(C)O)n1 [AZD1775] (first compound max 10 µM, partner max 1 µM) | -0.0146 | 0.0005 | -0.0563 | 0.0144 | -0.027 | -0.0404 | -0.0714 | 0.0014 | 0.0591 | 0.0123 | 0.0409 | 0.0345 | 0.019 | -0.0364 | 0.002 | 0.0237 | -0.0069 | -0.0051 | -0.0055 | -0.0543 |
| Cc1cc2ncnn2cc1Nc1ncc2c(n1)n(C1CCOCC1)c(=O)n2C [AZD7648] + CCN(CCO)CCCOc1ccc2c(Nc3cc(CC(=O)Nc4cccc(F)c4)[nH]n3)ncnc2c1 [AZD2811] (first compound max 10 µM, 7x7, partner max 1 µM) | 0.055 | -0.0091 | 0.0056 | -0.0152 | -0.002 | 0.0265 | -0.0526 | -0.0267 | 0.0364 | 0.0616 | 0.045 | -0.0146 | 0.0523 | -0.0036 | -0.026 | -0.0161 | 0.0001 | 0.0068 | -0.0306 | 0.0077 |

From the supplement of paper PMC11061612
